Where two headings read alike, the source gives them in different places.
Key:
[1] = target: m-CRHR2b (Mus musculus, UniProt Q60748); settings: m-CRHR2b transfected CHO-K1 cells (Lewis et al., 2001); cited from earlier work
[2] = in vivo; settings: dog, iv
Description: The findings described above were further examined in a study, in which h-SCP (SEQ ID NO:1) was infused over a 30-minute period at the same total doses that were administered by bolus as described above with the results presented in Table 17 and FIGS. 11A & B. As in the case of bolus dosing h-SCP (SEQ ID NO:1) elicited dose- (infusion-) dependent changes in blood pressure, left ventricular systolic and diastolic function, and heart rate. However, at the lower range of the dose- (infusion-) response curve there was a pronounced lessening in the positive chronotropic and blood pressure response with marked and significant increase in cardiac function measured as increased CO and LVEF. […] The corresponding plasma concentration of h-SCP (SEQ ID NO:1) was 4,577 pg/mL.
A sandwich immunoassay was developed using an affinity purified goat polyclonal antibody, specific to h-SCP that was pre-coated onto a microplate with integrated electrodes. h-SCP molecules present in the sample will bind to the capture polyclonal antibody coated on the plate. After washing away any unbound substances, a sulfo-tagged mouse monoclonal anti-h-SCP antibody was added. This conjugated antibody will bind to the h-SCP molecules captured on the microplate and the quantity of analyte was determined by electrochemiluminescence. The amount of signal generated is directly proportional to the h-SCP concentration in the sample or standard. The standard curve range is 3.125-1600 pg/mL with a quantifiable range from 10-800 pg/mL. A sample volume of 25 μL (in duplicate) is required for this assay. This immunoassay is specific for human and dog stresscopin and human urocortin III (h-UCN3). […] After completion of the analysis, based on a comparison of reference standards between the ELISA and HPLC method, a correction factor of 1.57 was applied to all bioanalytical data.

[3] = system: healthy subjects; test: Human hemodynamics (impedance cardiography), healthy subjects, 7.5-hour ascending dose IV infusion; format: in vivo; settings: for Heart Rate Change from Baseline / Heart Rate Percent Change from Baseline: post hoc analysis
Description: Efficacy was based on the pharmacodynamic evaluation of hemodynamics, which was monitored using the noninvasive technique of impedance cardiography. Heart rate values were collected by impedance cardiography measurements. It was noted that the heart rate of subjects receiving placebo were elevated on the day of their infusions, at baseline before the infusion, and for the first 3 to 4 hours after the infusions were started (FIG. 17). Based on this observation, it appeared that there was a potential effect of period on the observed heart rate.
A mixed-effect model with baseline as covariate, period and dose group (≦3 ng/kg/min−low, >3 to ≦36 ng/kg/min−mid, >36 ng/kg/min−high) as fixed effects, and a random subject effect was established using the heart rate change from baseline in healthy subjects.
To confirm that the statistically significant increase in heart rate is caused by the high dose group, a similar mixed-effect model that excluded the high dose level (>36 ng/kg/min) group was built up.
A post hoc graphical analysis of the hemodynamic data was done to adjust for the elevated baseline values seen just before onset of the infusion, to obtain the best estimate of each hemodynamic parameter, and to correct for the effect of period. A post hoc graphic presentation was prepared from the complete (high frequency) dataset. This dataset contains the raw data that were further processed by the vendor (ie, CardioDynamics) and reported only at specific time points.
In this post hoc analysis an extended baseline was used for each value that included all values recorded before initiation of the infusion. Then an average value for each parameter was obtained from the last 30 minutes of each 2.5 hour infusion and was used as the effect in that period of the infused dose. Each value was modified for the effect of period of infusion by subtracting the mean change from baseline seen in placebo subjects dosed in that same period (placebo subtraction). The dose effect was estimated by averaging the values from all subjects who received the same dose after the placebo subtraction.

[4] = system: isolated rat aortic rings; test: Vascular smooth muscle relaxation, isolated rat aortic rings pre-contracted with phenylephrine
Description: The ability of h-SCP (SEQ ID NO:1) to relax vascular smooth muscle was examined in isolated, rat aortic rings pre-contracted with phenylephrine (PE) (FIG. 8). […] The responses caused by h-SCP (SEQ ID NO:1) were inhibited by anti-sauvagine-30 (SEQ ID NO:118).

[5] = Human pharmacokinetics, healthy subjects, 24- or 72-hour infusion of 54 ng/kg/min; settings: in vivo; for Vd: Vss; for Tmax: median
Description: In healthy subjects following a 24- or 72-hour infusion of 54 ng/kg/min of h-SCP (SEQ ID NO:1) noncompartmental pharmacokinetic analyses were performed on plasma concentrations of h-SCP (SEQ ID NO:1).

[6] = male, 54 ng/kg, healthy subjects, 54 ng/kg/min, 24 Hours Male, mean, N = 7
[7] = male, 54 ng/kg, healthy subjects, 54 ng/kg/min, 72 Hours Male, mean, N = 7

Sequence of m-CRHR2b (Q60748 1-431 isoform Q60748-2): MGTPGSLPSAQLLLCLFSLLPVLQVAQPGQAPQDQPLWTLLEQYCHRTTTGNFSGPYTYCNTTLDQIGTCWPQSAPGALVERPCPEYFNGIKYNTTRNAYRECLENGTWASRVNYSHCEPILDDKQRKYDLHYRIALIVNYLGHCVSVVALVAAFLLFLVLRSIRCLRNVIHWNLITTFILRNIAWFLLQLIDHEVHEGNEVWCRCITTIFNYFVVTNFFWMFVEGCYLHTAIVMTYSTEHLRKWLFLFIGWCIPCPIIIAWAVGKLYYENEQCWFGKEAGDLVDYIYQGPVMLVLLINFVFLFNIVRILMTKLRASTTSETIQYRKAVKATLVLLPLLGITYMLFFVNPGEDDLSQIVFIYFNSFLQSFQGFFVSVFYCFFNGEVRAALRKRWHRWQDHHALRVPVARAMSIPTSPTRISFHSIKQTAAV

CC[C@H](C)[C@H](NC(=O)[C@H](CO)NC(=O)[C@H](CC(C)C)NC(=O)[C@@H]1CCCN1C(=O)[C@@H]1CCCN1C(=O)[C@H](CC(=O)O)NC(=O)[C@@H](N)CC(=O)O)C(=O)N[C@@H](CC(=O)O)C(=O)N[C@@H](CC(C)C)C(=O)N[C@H](C(=O)N[C@@H](Cc1ccccc1)C(=O)N[C@@H](Cc1c[nH]cn1)C(=O)N[C@@H](CC(C)C)C(=O)N[C@@H](CC(C)C)C(=O)N[C@@H](CCCNC(=N)N)C(=O)N[C@H](C(=O)N[C@@H](CC(C)C)C(=O)N[C@@H](CC(C)C)C(=O)N[C@@H](CCC(=O)O)C(=O)N[C@@H](CC(C)C)C(=O)N[C@@H](C)C(=O)N[C@@H](CCCNC(=N)N)C(=O)N[C@H](C(=O)N[C@@H](CCC(N)=O)C(=O)N[C@@H](CO)C(=O)N[C@@H](CCC(N)=O)C(=O)N[C@@H](CCCNC(=N)N)C(=O)N[C@@H](CCC(=O)O)C(=O)N[C@@H](CCCNC(=N)N)C(=O)N[C@@H](C)C(=O)N[C@@H](CCC(=O)O)C(=O)N[C@@H](CCC(N)=O)C(=O)N[C@@H](CC(N)=O)C(=O)N[C@@H](CCCNC(=N)N)C(=O)N[C@H](C(=O)N[C@H](C(=O)N[C@@H](Cc1ccccc1)C(=O)N[C@@H](CC(=O)O)C(=O)N[C@@H](CO)C(=O)N[C@H](C(N)=O)C(C)C)[C@@H](C)CC)[C@@H](C)CC)[C@@H](C)O)[C@@H](C)O)[C@@H](C)O [SEQ ID NO: 114, DDPPLSIDLTFHLLRTLLELARTQSQRERAEQNRIIFDSV-NH2]
Published pA50 [1]: 10.06^2

H-TKFTLSLDVPTNIMNLLFNIAKAKNLRAQAAANAHLMAQI-NH2 [SEQ ID NO: 1, TKFTLSLDVPTNIMNLLFNIAKAKNLRAQAAANAHLMAQI-NH2]
level at 0.5 h ([2]; 22 ng/kg/min): 0.62 ng/mL
level at time molar at 0.5 h ([2]; 22 ng/kg/min): 0.142 nM
level at 0.5 h ([2]; 43 ng/kg/min): 4.58 ng/mL
level at time molar at 0.5 h ([2]; 43 ng/kg/min): 1.05 nM
level at 0.5 h ([2]; 86 ng/kg/min): 5.14 ng/mL
level at time molar at 0.5 h ([2]; 86 ng/kg/min): 1.18 nM
level at 0.5 h ([2]; 146 ng/kg/min): 23.6 ng/mL
level at time molar at 0.5 h ([2]; 146 ng/kg/min): 5.41 nM
level at 0.5 h ([2]; 437 ng/kg/min): 67.1 ng/mL
level at time molar at 0.5 h ([2]; 437 ng/kg/min): 15.4 nM
cardiac output or cardiac index ([3]; all doses ≦36 ng/kg/min): no change in cardiac output or cardiac index
heart rate compared with baseline ([3]; doses less than 36 ng/kg/min): no notable increase in heart rate compared with baseline
increase in heart rate from baseline ([3]; doses of 72 ng/kg/min and higher, end of 2.5-hour infusion period): ~30 bpm
Heart Rate Change from Baseline ([3]; infusion rate 0.1 ng/kg/min): −2.8 bpm
Heart Rate Percent Change from Baseline ([3]; infusion rate 0.1 ng/kg/min): −4.6%
Heart Rate Change from Baseline ([3]; infusion rate 0.3 ng/kg/min): −0.4 bpm
Heart Rate Percent Change from Baseline ([3]; infusion rate 0.3 ng/kg/min): −0.2%
Heart Rate Change from Baseline ([3]; infusion rate 1 ng/kg/min): −2.0 bpm
Heart Rate Percent Change from Baseline ([3]; infusion rate 1 ng/kg/min): −3.3%
Heart Rate Change from Baseline ([3]; infusion rate 3 ng/kg/min): 1.3 bpm
Heart Rate Percent Change from Baseline ([3]; infusion rate 3 ng/kg/min): 2.6%
Heart Rate Change from Baseline ([3]; infusion rate 9 ng/kg/min): 0.1 bpm
Heart Rate Percent Change from Baseline ([3]; infusion rate 9 ng/kg/min): 0.6%
Heart Rate Change from Baseline ([3]; infusion rate 18 ng/kg/min): 2.1 bpm
Heart Rate Percent Change from Baseline ([3]; infusion rate 18 ng/kg/min): 3.9%
Heart Rate Change from Baseline ([3]; infusion rate 36 ng/kg/min): 5.2 bpm
Heart Rate Percent Change from Baseline ([3]; infusion rate 36 ng/kg/min): 9.4%
Heart Rate Change from Baseline ([3]; infusion rate 54 ng/kg/min): 12.7 bpm
Heart Rate Percent Change from Baseline ([3]; infusion rate 54 ng/kg/min): 20.5%
Heart Rate Change from Baseline ([3]; infusion rate 72 ng/kg/min): 18.1 bpm
Heart Rate Percent Change from Baseline ([3]; infusion rate 72 ng/kg/min): 30.3%
Heart Rate Change from Baseline ([3]; infusion rate 108 ng/kg/min): 20.9 bpm
Heart Rate Percent Change from Baseline ([3]; infusion rate 108 ng/kg/min): 31.3%
Heart Rate Change from Baseline ([3]; infusion rate 144 ng/kg/min): 21.2 bpm
Heart Rate Percent Change from Baseline ([3]; infusion rate 144 ng/kg/min): 34.3%
fold less potent than h-UCN2 [4]: 10 fold
pA50 of relaxation ([4]; rat aortic rings pre-contracted with phenylephrine): 6.05±0.12
half-life ([5]; female, 54 ng/kg, T1/2): 23.4 h
half-life ([5]; female, 54 ng/kg, T1/2, effective): 5.84 h
Vd ([5]; female, 54 ng/kg): 2.72 L/kg
AUC(0-inf) ([5]; female, 54 ng/kg, healthy subjects, 54 ng/kg/min, 72 Hours Female, mean, N = 5): 740 ng·h/mL
Cmax ([5]; female, 54 ng/kg, healthy subjects, 54 ng/kg/min, 72 Hours Female, mean, N = 6): 11.5 ng/mL
clearance ([5]; female, 54 ng/kg, healthy subjects, 54 ng/kg/min, 72 Hours Female, mean, N = 6, read-out: CL (converted)): 5.5 mL/min/kg
Tmax ([5]; female, 54 ng/kg, healthy subjects, 54 ng/kg/min, 72 Hours Female, N = 6): 18 h
half-life ([5]; 54 ng/kg/min, healthy subjects, 24- or 72-hour infusion of 54 ng/kg/min, read-out: Mean terminal half-life): 23.4 to 28.8 h
half-life ([5]; 54 ng/kg/min, healthy subjects, 24- or 72-hour infusion of 54 ng/kg/min, read-out: effective half-life): 5.84 to 9.62 h
clearance ([5]; 54 ng/kg/min, healthy subjects, 24- or 72-hour infusion of 54 ng/kg/min, read-out: mean clearance): 4.67 to 6.33 mL/min/kg
T1/2 ([5]; male, 54 ng/kg): 28.81 h
T1/2, effective ([5]; male, 54 ng/kg): 9.62 h
Vss ([5]; male, 54 ng/kg): 4.94 L/kg
half-life ([5]; male, 54 ng/kg, T1/2): 25.7 h
half-life ([5]; male, 54 ng/kg, T1/2, effective): 9.37 h
Vd ([5]; male, 54 ng/kg): 3.7 L/kg
AUC(0-inf) [5, 6]: 283 ng·h/mL
Cmax [5, 6]: 12.2 ng/mL
clearance ([5]; male, 54 ng/kg, healthy subjects, 54 ng/kg/min, 24 Hours Male, mean, N = 7, read-out: CL (converted)): 4.67 mL/min/kg
Tmax ([5]; male, 54 ng/kg, healthy subjects, 54 ng/kg/min, 24 Hours Male, N = 7): 16 h
AUC(0-inf) [5, 7]: 632 ng·h/mL
Cmax [5, 7]: 10.2 ng/mL
clearance ([5]; male, 54 ng/kg, healthy subjects, 54 ng/kg/min, 72 Hours Male, mean, N = 7, read-out: CL (converted)): 6.33 mL/min/kg
Tmax ([5]; male, 54 ng/kg, healthy subjects, 54 ng/kg/min, 72 Hours Male, N = 7): 24 h

Reference: patent publication US20110105397A1, “METHOD FOR TREATING HEART FAILURE WITH STRESSCOPIN-LIKE PEPTIDES” (priority 2009, published 2011)
